These results are taken from patent US8791102B2, “Acetanilide sphingosine-1-phosphate receptor antagonists” (Exelixis, Inc., priority 2008, dated 2014).

pIC50: −log10 of the molar value. A value given as a limit tells only on which side of the number the result lay.

The target of the test is T1, human S1P1 receptors (Homo sapiens, UniProt P21453).
T1 construct: host or cells: HEK293
The test is described as follows: S1P1R antagonist assay (fluorescent membrane potential dye, cAMP readout). The following applies: HEK293 cells expressing human S1P1 receptors and CNG channel; 500 nM NECA; S1P1R agonist 10 nM; 90 minutes; read-out: EC50 or IC50 value. Format: cell-based.

T1 sequence (P21453 whole entry): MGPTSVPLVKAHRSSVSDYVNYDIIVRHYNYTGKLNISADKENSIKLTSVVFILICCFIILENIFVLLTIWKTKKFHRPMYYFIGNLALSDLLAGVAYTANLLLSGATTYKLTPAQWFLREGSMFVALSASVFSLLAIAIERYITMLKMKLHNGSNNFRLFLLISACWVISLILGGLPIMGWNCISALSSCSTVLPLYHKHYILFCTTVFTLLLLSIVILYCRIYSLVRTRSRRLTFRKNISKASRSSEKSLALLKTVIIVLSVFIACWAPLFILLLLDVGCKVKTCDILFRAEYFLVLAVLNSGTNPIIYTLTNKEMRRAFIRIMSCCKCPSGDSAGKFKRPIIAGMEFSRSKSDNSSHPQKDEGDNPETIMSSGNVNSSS

`O=C(Cc1ccccc1Cl)NC(COCc1ccccc1)C(=O)Nc1ccc(Oc2ccccc2)cc1` (stereo not shown) [Compound 391, N-(2-oxo-1-{[(phenylmethyl)oxy]methyl}-2-{[4-(phenyloxy)phenyl]amino}ethyl)-2-(2-chlorophenyl)acetamide]: the pIC50 is less than 6.00.

As for `CC(=O)c1ccc(C(=O)NC(COCc2ccccc2)C(=O)Nc2ccc(Oc3ccccc3)cc2)cc1` (stereo not shown) [Compound 396, 4-acetyl-N-(2-oxo-1-{[(phenylmethyl)oxy]methyl}-2-{[4-(phenyloxy)phenyl]amino}ethyl)benzamide], the pIC50 is less than 6.00.

With `Cc1cc(Oc2ccc(F)cc2)ccc1NC(=O)[C@H](COCc1ccccc1)NC(=O)Cc1cnc[nH]1` [Compound 47, (S)-2-(2-(1H-imidazol-5-yl)acetamido)-3-(benzyloxy)-N-(4-(4-fluorophenoxy)-2-methylphenyl)propanamide], the negative logarithm of the IC50 (pIC50) is less than 6.00.

`O=C(CCC(=O)c1ccccc1)NC(COCc1ccccc1)C(=O)Nc1ccc(Oc2ccccc2)cc1` (stereo not shown) [Compound 349, 4-oxo-N-(2-oxo-1-{[(phenylmethyl)oxy]methyl}-2-{[4-(phenyloxy)phenyl]amino}ethyl)-4-phenylbutanamide]: the pIC50 is 6.00 to 6.52.

Regarding `C#CCCC(=O)NC(COCc1ccccc1)C(=O)Nc1ccc(Oc2ccccc2)cc1` (stereo not shown) [Compound 344, N-(2-oxo-1-{[(phenylmethyl)oxy]methyl}-2-{[4-(phenyloxy)phenyl]amino}ethyl)pent-4-ynamide], the pIC50 was less than 6.00.

With `O=C(Nc1ccc(Oc2ccc(F)cc2)cc1)[C@@H]1C[C@@H](Cc2ccccc2Cl)CN1C(=O)Cn1cncn1` [Compound 57, (2S,4R)-1-(2-(1H-1,2,4-triazol-1-yl)acetyl)-4-(2-chlorobenzyl)-N-(4-(4-fluorophenoxy)phenyl)pyrrolidine-2-carboxamide], the negative logarithm of the IC50 (pIC50) was no less than 6.52.

As to `COc1cccc(C[C@@H]2C[C@@H](C(=O)Nc3ccc(Oc4ccc(F)cc4)cc3)N(C(=O)Cn3ccnn3)C2)c1` [Compound 68, (2S,4R)-1-(2-(1H-1,2,3-triazol-1-yl)acetyl)-N-(4-(4-fluorophenoxy)phenyl)-4-(3-methoxybenzyl)pyrrolidine-2-carboxamide], the negative-log IC50 (pIC50) was no less than 6.52.

As to `O=C(CN1CCC(Cc2ccccc2)CC1)N[C@@H](COCc1ccccc1)C(=O)Nc1ccc(Oc2ccc(F)cc2)cc1` [Compound 220, (S)-3-(benzyloxy)-2-(2-(4-benzylpiperidin-1-yl)acetamido)-N-(4-(4-fluorophenoxy)phenyl)propanamide], the negative-log IC50 (pIC50) is 6.00 to 6.52.

`O=C(Nc1ccc(Oc2ccc(F)cc2)cc1)[C@@H]1C[C@@H](Cc2cccc(F)c2)CN1C(=O)Cn1cncn1` [Compound 51, (2S,4R)-1-(2-(1H-1,2,4-triazol-1-yl)acetyl)-4-(3-fluorobenzyl)-N-(4-(4-fluorophenoxy)phenyl)pyrrolidine-2-carboxamide]: the negative-log IC50 (pIC50) was no less than 6.52.

`O=C(Nc1ccc(Oc2ccc(F)cc2)cc1)[C@@H]1C[C@@H](Cc2ccccc2)CN1C(=O)Cn1nccn1` [Compound 58, (2S,4R)-1-(2-(2H-1,2,3-triazol-2-yl)acetyl)-4-benzyl-N-(4-(4-fluorophenoxy)phenyl)pyrrolidine-2-carboxamide]: the negative-log IC50 (pIC50) was no less than 6.52.

For the compound `O=C(NC(COCc1ccccc1)C(=O)Nc1ccc(Oc2ccccc2)cc1)c1ccc2cc[nH]c2c1` (stereo not shown) [Compound 187, N-(3-(benzyloxy)-1-oxo-1-(4-phenoxyphenylamino)propan-2-yl)-1H-indole-6-carboxamide], the negative-log IC50 (pIC50) was 6.00 to 6.52.

As for `O=C(NC(COCc1ccccc1)C(=O)Nc1ccc(Oc2ccccc2)cc1)c1cccc2cccnc12` (stereo not shown) [Compound 357, N-(2-oxo-1-{[(phenylmethyl)oxy]methyl}-2-{[4-(phenyloxy)phenyl]amino}ethyl)quinoline-8-carboxamide], the negative-log IC50 (pIC50) was 6.00 to 6.52.

For `O=C(Cn1cncn1)N[C@@H](COCc1ccccc1OC(F)(F)F)C(=O)Nc1ccc(Oc2ccc(F)cc2)cc1` [Compound 139, (S)-2-(2-(1H-1,2,4-triazol-1-yl)acetamido)-N-(4-(4-fluorophenoxy)phenyl)-3-(2-(trifluoromethoxy)benzyloxy)propanamide], the pIC50 is no less than 6.52.

Take `O=C(Cc1c[nH]cn1)N[C@@H](COCc1ccc(F)cc1)C(=O)Nc1ccc(Oc2ccc(F)cc2)cc1` [Compound 133, (S)-2-(2-(1H-imidazol-5-yl)acetamido)-3-(4-fluorobenzyloxy)-N-(4-(4-fluorophenoxy)phenyl)propanamide]: the pIC50 was no less than 6.52.

On to `O=C(NC(COCc1ccccc1)C(=O)Nc1ccc(Oc2ccccc2)cc1)c1cccc(O)n1` (stereo not shown) [Compound 358, 6-hydroxy-N-(2-oxo-1-{[(phenylmethyl)oxy]methyl}-2-{[4-(phenyloxy)phenyl]amino}ethyl)pyridine-2-carboxamide], for which the pIC50 was less than 6.00.

With `O=C(NC(COCc1ccccc1)C(=O)Nc1ccc(Oc2ccccc2)cc1)c1ccc([N+](=O)[O-])o1` (stereo not shown) [Compound 326, 5-nitro-N-(2-oxo-1-{[(phenylmethyl)oxy]methyl}-2-{[4-(phenyloxy)phenyl]amino}ethyl)furan-2-carboxamide], the negative-log IC50 (pIC50) was no less than 6.52.

As to `O=C(Nc1ccc(Oc2ccc(F)cc2)cc1)[C@@H]1C[C@@H](Cc2ccccc2F)CN1C(=O)Cn1ccnn1` [Compound 264, (2S,4R)-1-(2-(1H-1,2,3-triazol-1-yl)acetyl)-4-(2-fluorobenzyl)-N-(4-(4-fluorophenoxy)phenyl)pyrrolidine-2-carboxamide], the negative logarithm of the IC50 (pIC50) is no less than 6.52.

As for `COc1ccc(OC)c(CC(=O)NC(COCc2ccccc2)C(=O)Nc2ccc(Oc3ccccc3)cc2)c1` (stereo not shown) [Compound 280, N-(2-oxo-1-{[(phenylmethyl)oxy]methyl}-2-{[4-(phenyloxy)phenyl]amino}ethyl)-2,5-dimethoxyphenylacetamide], the pIC50 is less than 6.00.

Consider `Cc1cc(Oc2ccc(NC(=O)[C@@H]3C[C@@H](Cc4ccc(F)cc4)CN3C(=O)Cn3cncn3)cc2)ccc1F` [Compound 73, (2S,4R)-1-(2-(1H-1,2,4-triazol-1-yl)acetyl)-N-(4-(4-fluoro-3-methylphenoxy)phenyl)-4-(4-fluorobenzyl)pyrrolidine-2-carboxamide], for which the pIC50 was no less than 6.52.

`O=C(Cc1ccc(Br)cc1)NC(COCc1ccccc1)C(=O)Nc1ccc(Oc2ccccc2)cc1` (stereo not shown) [Compound 390, N-(2-oxo-1-{[(phenylmethyl)oxy]methyl}-2-{[4-(phenyloxy)phenyl]amino}ethyl)-2-(4-bromophenyl)acetamide]: the pIC50 was less than 6.00.

Consider `COc1ccc(Br)c(C(=O)NC(COCc2ccccc2)C(=O)Nc2ccc(Oc3ccccc3)cc2)c1` (stereo not shown) [Compound 272, 2-bromo-5-(methyloxy)-N-(2-oxo-1-{[(phenylmethyl)oxy]methyl}-2-{[4-(phenyloxy)phenyl]amino}ethyl)benzamide], for which the pIC50 is less than 6.00.

Take `O=C(Nc1ccc(Oc2ccccc2)cc1)C(COCc1ccccc1)NC(=O)[C@H](O)Cc1ccccc1` (stereo partly drawn) [Compound 27, 3-(benzyloxy)-2-((R)-2-hydroxy-3-phenylpropanamido)-N-(4-phenoxyphenyl)propanamide]: the negative-log IC50 (pIC50) is less than 6.00.

Take `Nc1nc(C(F)(F)F)nn1CC(=O)N1C[C@H](Cc2ccccc2)C[C@H]1C(=O)Nc1ccc(Oc2ccc(F)cc2)cc1` [Compound 11, (2S,4R)-1-(2-(5-amino-3-(trifluoromethyl)-1H-1,2,4-triazol-1-yl)acetyl)-4-benzyl-N-(4-(4-fluorophenoxy)phenyl)pyrrolidine-2-carboxamide]: the pIC50 was no less than 6.52.

For the compound `COc1ccc(OC)c(C(=O)NC(COCc2ccccc2)C(=O)Nc2ccc(Oc3ccccc3)cc2)c1` (stereo not shown) [Compound 332, 2,5-bis(methyloxy)-N-(2-oxo-1-{[(phenylmethyl)oxy]methyl}-2-{[4-(phenyloxy)phenyl]amino}ethyl)benzamide], the negative logarithm of the IC50 (pIC50) is 6.00 to 6.52.

As for `O=C(NC(COCc1ccccc1)C(=O)Nc1ccc(Oc2ccccc2)cc1)C1CCN(c2nccc(C(F)(F)F)n2)CC1` (stereo not shown) [Compound 302, N-(2-oxo-1-{[(phenylmethyl)oxy]methyl}-2-{[4-(phenyloxy)phenyl]amino}ethyl)-1-[4-(trifluoromethyl)pyrimidin-2-yl]piperidine-4-carboxamide], the pIC50 was less than 6.00.

For `O=C(CN1CCN(Cc2c(F)cccc2Cl)CC1)N[C@@H](COCc1ccccc1)C(=O)Nc1ccc(Oc2ccc(F)cc2)cc1` [Compound 239, (S)-3-(benzyloxy)-2-(2-(4-(2-chloro-6-fluorobenzyl)piperazin-1-yl)acetamido)-N-(4-(4-fluorophenoxy)phenyl)propanamide], the pIC50 was no less than 6.52.

Turning to `O=C(Nc1ccc(Oc2ccc(F)cc2)cc1)[C@@H]1C[C@@H](NCc2ccccc2)CN1C(=O)Cn1cncn1` [Compound 179, (2S,4R)-1-(2-(1H-1,2,4-triazol-1-yl)acetyl)-4-(benzylamino)-N-(4-(4-fluorophenoxy)phenyl)pyrrolidine-2-carboxamide], the pIC50 is no less than 6.52.

With `COc1ccc(CCC(=O)NC(COCc2ccccc2)C(=O)Nc2ccc(Oc3ccccc3)cc2)cc1OC` (stereo not shown) [Compound 348, N-(2-oxo-1-{[(phenylmethyl)oxy]methyl}-2-{[4-(phenyloxy)phenyl]amino}ethyl)-3-(3,4-dimethoxyphenyl)propanamide], the pIC50 is 6.00 to 6.52.

For the compound `O=C(CN1CCN(c2ccccn2)CC1)N[C@@H](COCc1ccccc1)C(=O)Nc1ccc(Oc2ccc(F)cc2)cc1` [Compound 126, (S)-3-(benzyloxy)-N-(4-(4-fluorophenoxy)phenyl)-2-(2-(4-(pyridin-2-yl)piperazin-1-yl)acetamido)propanamide], the pIC50 is less than 6.00.

As for `O=C(Nc1ccc(Oc2ccc(F)cc2)cc1)[C@@H]1C[C@@H](Cc2cccs2)CN1C(=O)Cn1nccn1` [Compound 64, (2S,4S)-1-(2-(2H-1,2,3-triazol-2-yl)acetyl)-N-(4-(4-fluorophenoxy)phenyl)-4-(thien-2-ylmethyl)pyrrolidine-2-carboxamide], the pIC50 was no less than 6.52.

Consider `Cc1ccc(Oc2ccc(NC(=O)[C@H](COCc3ccccc3)NC(=O)Cc3c[nH]cn3)cc2)cc1` [Compound 158, (S)-2-(2-(1H-imidazol-5-yl)acetamido)-3-(benzyloxy)-N-(4-(p-tolyloxy)phenyl)propanamide], for which the negative-log IC50 (pIC50) was no less than 6.52.
